Test results published in patent publication US20060046976A1, “Method for increasing the bone mineral density and bone micro-architecture or connectivity of a mammal using N-acylated glucosamines” (priority 2004, published 2006).

How the values were obtained:
ovariectomised rats = assay: Femoral and spine BMD by DXA in ovariectomised rats fed GlcNBu; format: in vivo, rat; conditions: 200 mg GlcNBu by mouth daily, 6 months
Source text: This investigation was designed to test the effects of GlcNBu on the BMD of the femurs in an ovariectomised rat model. The experiments performed are described as follows.
FIGS. 1A and 1B show the effect of GlcNBu feeding on femoral BMD with time, over six months, in the ovariectomized rat. Both the top and bottom panels show the mean total designated herein as global BMD of the femurs for the 8 animals in each group, with time. The actual BMD values are shown on the vertical axes. FIG. 1A Glc-O represents the data from the ovariectomised rats fed with glucose and FIG. 1B GlcNBu-O represents data from the ovariectomised rats fed with GlcNBu. The sequential DXA scans for estimating BMD at times 0, 2 months, 4 months and 6 months are illustrated on the horizontal axis and designated as Sequential Scan number 1.0, 2.0. 3.0 and 4.0, respectively.
Sixteen ovariectomised rats (Charles River Laboratories), approximately 200 g in weight, were randomized into two groups. The control group received 200 mg of glucose, by mouth as single daily doses and the GlcNBu-treated group received 200 mg of GlcNBu by mouth, as single daily doses, for a total period of six (6) months. A similar group of non-ovariectomised animals was fed with GlcNBu or glucose at the same doses. […] Consistent position of the femurs was assured with a pre-determined grid. […]

[1] = test system: Insulin-like Growth factor I (IGF-1); assay: Plasma IGF-1 concentration by commercial immunological method; format: in vivo, rat; conditions: end of 6 months; ovariectomised GlcNBu fed rats compared to GlcNBu fed non-ovariectomised rats; p=0.044
Method: Sixteen ovariectomised rats (Charles River Laboratories), approximately 200 g in weight, were randomized into two groups. The control group received 200 mg of glucose, by mouth as single daily doses and the GlcNBu-treated group received 200 mg of GlcNBu by mouth, as single daily doses, for a total period of six (6) months. A similar group of non-ovariectomised animals was fed with GlcNBu or glucose at the same doses. The feeding of the compounds was done in small amounts of peanut butter which was very acceptable to the rats, which were allowed free access to water and rat chow. The animals had the BMDs of the femurs (total or global BMD) and the lumbar spines were estimated at baseline and then at, approximately 2, 4 and 6 months. Consistent position of the femurs was assured with a pre-determined grid. A Hologic 4500 DXA machine, with small animal software, was employed for the study. The animals were lightly anesthetized for each measurement.
At the end of the experiment, the animals were sacrificed, plasma was collected by cardiac puncture, and the femurs removed, fully dissected from adherent tissue and the wet weight was determined. The concentrations of Insulin-like Growth factor I (IGF-1) in the plasma, obtained at the end of the experiment, were determined by a commercial immunological method.

SCW-arthritis rats = assay: Micro-CT three-dimensional trabecular bone measurements of proximal tibia, SCW-arthritis rats; format: in vivo, Lewis type rats
Source text: In this experiment performed and described herein, there were four groups of Lewis type rats, consisting of eight (8) animals in each group. Lewis type rats had experimental arthritis induced by a single intra-peritoneal injection of streptococcal cell wall antigen (SCW). This type of arthritis has an acute and chronic phase and affects mostly the distal joints in the hind limbs of the animals, and, less so, the knees and hips. Groups 1-3, inclusive, had inflammatory arthritis induced. The compound used in the experiment was used to supplement normal rat chow feed on a daily basis. Feed and water were unrestricted. Group I feed was supplemented with the compound shown in formula II, abbreviated as GlcNBu, at a dose of 200mg/kg/day. Group 3 feed was supplemented with GlcNBu at 20 mg/kg/day. At the end of 6 weeks, the animals were sacrificed, the femurs and tibias were excised, fixed in formalin and the BMD, micro-CT measurements, 3-dimentional measurements and two-dimentional subchondral bone analysis were carried out, by the methods detailed below. • BMD. All the dissected femurs and tibiae were scanned with dual energy x-ray absorptiometry (DXA) were measured at the distal femur, and proximal tibia using a user defined region of interest (ROI). • Micro-CT imaging protocol. The fixed left tibiae were scanned with micro-CT scanner (Explore Locus SP micro CT Scanner, GE Healthcare). The tibias were placed in a water filled specimen tube in a firmed position such that the main axis was kept as parallel as possible to the Z-axis of the micro-CT image coordinate system. The reconstructed tibia images were analyzed with MicroView 2.0 software (GE Healthcare, London, ON) in two and three dimensions. • Three-dimensional trabecular bone measurements. Three dimensional bone analyses were conducted using three selected ROIs using MicroView 2.0 analysis software. On 3D analysis, the tissue volume (3D-TV, mm3) and trabecular bone volume (3D-BV, mm3) were measured directly, and the fractional trabecular bone volume (3D-BV/TV, %) was calculated. […] Another parameter obtained is the structure model index (SMI). The SMI represented the plate-rod characteristics of trabecular structure. In this measure, a negative number is indicative of a plate-like structure containing holes, 0 represents an ideal plate-like structure while 3 represents the ideal rod (cylindrical) structure. Larger SMI values indicate that trabecular structure contains a more rod-like structure in older or diseased bone. • Three-dimensional isosurface. A 3-D isosurface image of each tibia was obtained by a volume-rendering function in MicroView to qualitatively examine the erosive damage in the bone surface. • Two-dimensional subchondral bone analysis. Three coronal sections of proximal tibia were obtained from each 3-D reconstructed tibia image: anterior, central, and posterior (1 mm apart). The subchondral trabecular bone structure and connectivity in the epiphyseal region of the proximal tibia was analyzed using an image processing and analysis system (Quantimet 570, Leica) on the 2-D micro-CT images.

[2] = SCW + GlcNBu High, lateral epiphysis of proximal tibia
[3] = SCW + GlcNBu High, medial epiphysis of proximal tibia
[4] = SCW + GlcNBu High, metaphysis of proximal tibia
[5] = SCW + GlcNBu Low, lateral epiphysis of proximal tibia
[6] = SCW + GlcNBu Low, medial epiphysis of proximal tibia
[7] = SCW + GlcNBu Low, metaphysis of proximal tibia

For `CCCC(=O)N[C@H]1C(O)O[C@H](CO)[C@@H](O)[C@@H]1O` (stereo partly drawn) [GlcNBu, N-butyryl-D-glucosamine], the “BMD of the spines vs glucose-fed” value (ovariectomised rats; data not shown) was “the differences were not reach statistical significance”, the “femoral BMD (global) plateau vs control (glucose-fed) rats” value (ovariectomised rats; plateau after 4 months, p<0.05) was “significantly higher” and the “plasma IGF-1 concentration” value [1] was “significant difference”. For the same compound, the “correction in SMI values compared to the untreated group” value (SCW-arthritis rats; GlcNBu treated groups, three tested areas) was 15-33%, the “Trabecular Bone Volume” value (SCW-arthritis rats; [2]) was 36.9 ± 3.7% and the “Trabecular Number” value (SCW-arthritis rats; [2]) was 6.0 ± 0.6. For the same compound, the “Trabecular Thickness” value (SCW-arthritis rats; [2]) was 0.054 ± 0.008 mm, the “Trabecular Bone Volume” value (SCW-arthritis rats; [3]) was 36.3 ± 4.8% and the “Trabecular Number” value (SCW-arthritis rats; [3]) was 5.1 ± 0.7. The “Trabecular Thickness” value (SCW-arthritis rats; [3]) was 0.066 ± 0.014 mm, the “Trabecular Bone Volume” value (SCW-arthritis rats; [4]) was 32.6 ± 4.7% and the “Trabecular Number” value (SCW-arthritis rats; [4]) was 8.2 ± 1.5. The “Trabecular Thickness” value (SCW-arthritis rats; [4]) was 0.034 ± 0.004 mm, the “Trabecular Bone Volume” value (SCW-arthritis rats; [5]) was 33.7 ± 2.7% and the “Trabecular Number” value (SCW-arthritis rats; [5]) was 5.8 ± 0.5. For the same compound, the “Trabecular Thickness” value (SCW-arthritis rats; [5]) was 0.052 ± 0.008 mm, the “Trabecular Bone Volume” value (SCW-arthritis rats; [6]) was 33.1 ± 3.0% and the “Trabecular Number” value (SCW-arthritis rats; [6]) was 5.0 ± 0.4. The “Trabecular Thickness” value (SCW-arthritis rats; [6]) was 0.062 ± 0.011 mm, the “Trabecular Bone Volume” value (SCW-arthritis rats; [7]) was 34.4 ± 9.4% and the “Trabecular Number” value (SCW-arthritis rats; [7]) was 7.7 ± 1.3. The “Trabecular Thickness” value (SCW-arthritis rats; [7]) was 0.034 ± 0.005 mm, the “trabecular bone volume, trabecular number and thickness decreases in arthritis” value (SCW-arthritis rats; SCW-arthritis rats, GlcNBu 20 and 200 mg/kg/day, 2D and 3D images) was “corrected by GlcNBu treatment in a dose dependent manner” and the “trabecular separation increase in SCW group” value (SCW-arthritis rats; SCW-arthritis rats, GlcNBu treatment) was “significantly reduced”. The “increase in metaphyseal trabecular volume from Group2 to the GlcNBu treated groups” value (SCW-arthritis rats; SCW-arthritis rats, low and high dose groups, p<0.05) was 12%.
